Assay results from US4820695A, “C-20-dihydro-deoxy-(cyclic amino)-derivatives of macrolide antibiotics” (priority 1987, dated 1989).
Values after ≈ are worked out from the molar mass of the structure shown. Read-outs that look alike come from different tables or passages of the source.

Tests used:
[1] = system: Haemophilus influenzae 76; experiment: MIC, standard agar-dilution assay (Table IX); assay type: cell-based; details: Haemophilus influenzae 76, Ampicillin-resistant strain
[2] = system: Streptococcus Group D 2041; experiment: MIC, standard agar-dilution assay (Table IX); assay type: cell-based
[3] = system: Streptococcus Group D X66; experiment: MIC, standard agar-dilution assay (Table IX); assay type: cell-based
Klebsiella X26 = experiment: MIC, standard agar-dilution assay (Table IX); assay type: cell-based
[4] = system: Staphylococcus epidermidis EPI1; experiment: MIC, standard agar-dilution assay (Table IX); assay type: cell-based; details: Staphylococcus epidermidis EPI1, agar-dilution
[5] = system: Staphylococcus epidermidis 222; experiment: MIC, standard agar-dilution assay (Table IX); assay type: cell-based
[6] = system: Streptococcus pneumoniae Park I; experiment: MIC, standard agar-dilution assay (Table IX); assay type: cell-based; details: Streptococcus pneumoniae Park I, agar-dilution
[7] = system: Staphylococcus aureus S13E; experiment: MIC, standard agar-dilution assay (Table IX); assay type: cell-based
Escherichia coli EC14 = experiment: MIC, standard agar-dilution assay (Table IX); assay type: cell-based
Pasteurella multocida [8] = experiment: Pasteurella infection in one-day-old chicks, medicated drinking water (Table XIII); assay type: in vivo; details: Administered in the available drinking water at 2 g/gal
Protocol: (§1) Many of the C-20 modified derivatives of this invention have also shown in vivo antibacterial activity against infections induced by gram-negative bacteria. Tables XII and XIII summarize the results of tests in which illustrative compounds were evaluated against a Pasteurella infection in one-day-old chicks. The compounds were administered parenterally or orally after challenge of the chicks with Pasteurella multocida (0.1 ml of a 10^-4 dilution of a twenty-hour tryptose broth culture of an avian P. multocida given subcutaneously). In these tests, unless indicated otherwise, all non-medicated infected chicks died within 24 hours of Pasteurella challenge. In the tests summarized in Table XII, the compounds were administered by subcutaneous injection at a dosage of 30 mg/kg, 1 and 4 hours post-challenge of the chicks with P. multocida. In the tests summarized in Table XIII the compounds were administered in medicated drinking water (at a level of 2 g/gal) available from 4 to 20 hours prior to challenge of the chicks with P. multocida and during the 3 -day test period.
^a Administered in the available drinking water at a concentration of […]

Escherichia coli N10 = experiment: MIC, standard agar-dilution assay (Table IX); assay type: cell-based
[9] = system: Haemophilus influenzae C.L.; experiment: MIC, standard agar-dilution assay (Table IX); assay type: cell-based; details: Ampicillin-sensitive strain
[10] = system: Streptococcus pyogenes C203; experiment: MIC, standard agar-dilution assay (Table IX); assay type: cell-based
[11] = system: Staphylococcus aureus V41; experiment: MIC, standard agar-dilution assay (Table IX); assay type: cell-based; details: Staphylococcus aureus V41, Penicillin-resistant strain
Pasteurella multocida [12] = experiment: Pasteurella infection in one-day-old chicks, subcutaneous administration (Table XII); assay type: in vivo; details: Administered subcutaneously, 30 mg/kg × 2, 1 and 4 hours post-challenge
Protocol: as §1
^a Administered subcutaneously; 30 mg/kg × 2

[13] = system: Staphylococcus aureus X400; experiment: MIC, standard agar-dilution assay (Table IX); assay type: cell-based; details: Staphylococcus aureus X400, Methicillin-resistant strain
Staphyloccus aureus X1.1 = experiment: MIC, standard agar-dilution assay (Table IX); assay type: cell-based, Staphylococcus aureus
[14] = Titratable groups in 66% aqueous DMF (Tables XIV-XVI); assay type: physicochemical
Source text: ^c Run in 66% aqueous DMF
^d Run in 66% aqueous DMF

Escherichia coli TEM = experiment: MIC, standard agar-dilution assay (Table IX); assay type: cell-based
[15] = system: Pasteurella hemolytica 22C; experiment: MIC, broth-dilution microtiter test (Table X); assay type: cell-based
Source text: (§2) The MIC's in Table X were obtained using conventional broth-dilution microtiter tests.

[16] = system: Pasteurella multocida 17E; experiment: MIC, broth-dilution microtiter test (Table X); assay type: cell-based; details: Bovine isolate
Source text: as §2

Staphylococcus aureus = experiment: MIC, broth-dilution microtiter test (Table X); assay type: cell-based
Source text: as §2

Mycoplasma synoviae 40A = experiment: MIC, broth-dilution microtiter test (Table X); assay type: cell-based
Source text: as §2

Streptococcus sp. 19F = experiment: MIC, broth-dilution microtiter test (Table X); assay type: cell-based
Source text: as §2

[17] = system: Pasteurella multocida 60A; experiment: MIC, broth-dilution microtiter test (Table X); assay type: cell-based; details: Avian isolate
Source text: as §2

[18] = system: Mycoplasma hyopneumoniae S5972; experiment: MIC, broth-dilution microtiter test (Table X); assay type: cell-based
Source text: as §2

[19] = system: Mycoplasma gallisepticum 29C; experiment: MIC, broth-dilution microtiter test (Table X); assay type: cell-based
Source text: as §2

Mycoplasma hyorhinis 29E = experiment: MIC, broth-dilution microtiter test (Table X); assay type: cell-based
Source text: as §2

[20] = system: Streptococcus pyogenes C203; experiment: ED50 in mice experimentally infected with S. pyogenes C203 (Table XI); assay type: in vivo; details: Streptococcus pyogenes, doses given 1 and 4 hours postinfection, read-out: ED50
Outline: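 Protective ED50 (mg/kg × 2) was determined as the dose sparing half the animals. Test compound was given twice, at 1 and 4 hours after experimental S. pyogenes C203 infection of mice.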

[21] = Staphylococcus aureus, read-out: MIC
[22] = Titratable groups (first value)
[23] = Mycoplasmopsis synoviae, read-out: MIC
[24] = Mesomycoplasma hyopneumoniae, read-out: MIC
[25] = Mycoplasmoides gallisepticum, read-out: MIC

## CCC1OC(=O)CC(O)C(C)C(OC2OC(C)C(O)C(N(C)C)C2O)C(CCN2CCC(C)CC(C)(C)C2)CC(C)C(=O)C=CC(C)=CC1COC1OC(C)C(O)C(OC)C1OC (single isomer, unassigned) [Compound D23, 20-DH-DO-20-(3,3,5-Trimethylhexahydroazepin-1-yl)desmycosin]
[1]
  MIC: 8 µg/mL (≈ 8.92 µM)
[2]
  MIC: 8 µg/mL (≈ 8.92 µM)
[3]
  MIC: 4 µg/mL (≈ 4.46 µM)
Klebsiella X26
  MIC: 128 µg/mL (≈ 143 µM)
[4]
  MIC: 0.5 µg/mL (≈ 0.557 µM)
[5]
  MIC: 0.5 µg/mL (≈ 0.557 µM)
[6]
  MIC: 0.5 µg/mL (≈ 0.557 µM)
[7]; Staphylococcus aureus S13E, agar-dilution
  MIC: 0.5 µg/mL (≈ 0.557 µM)
Escherichia coli EC14
  MIC: 64 µg/mL (≈ 71.3 µM)
Pasteurella multocida [8]
  Number of Deaths/Number Treated: 4/10
Escherichia coli N10
  MIC: 64 µg/mL (≈ 71.3 µM)
[9]
  MIC: 16 µg/mL (≈ 17.8 µM)
[10]
  MIC: 0.5 µg/mL (≈ 0.557 µM)
[11]
  MIC: 0.5 µg/mL (≈ 0.557 µM)
Pasteurella multocida [12]
  Number of Deaths/Number Treated: 8/10
[13]
  MIC: 1 µg/mL (≈ 1.11 µM)
Staphyloccus aureus X1.1
  MIC: 0.5 µg/mL (≈ 0.557 µM)
[14]
  Titratable groups: 9.0
  Titratable groups (first value): 7.7
Escherichia coli TEM
  MIC: 32 µg/mL (≈ 35.7 µM)
[15]
  MIC: 3.12 µg/mL (≈ 3.48 µM)
[16]
  MIC: 6.25 µg/mL (≈ 6.97 µM)
Staphylococcus aureus
  MIC: 3.12 µg/mL (≈ 3.48 µM)
Mycoplasma synoviae 40A
  MIC: 0.097 µg/mL (≈ 0.108 µM)
Streptococcus sp. 19F
  MIC: 1.56 µg/mL (≈ 1.74 µM)
[17]
  MIC: 12.5 µg/mL (≈ 13.9 µM)
[18]
  MIC: 0.78 µg/mL (≈ 0.869 µM)
[19]
  MIC: 0.097 µg/mL (≈ 0.108 µM)
Mycoplasma hyorhinis 29E
  MIC: 6.25 µg/mL (≈ 6.97 µM)

## CCC1OC(=O)CC(O)C(C)C(OC2OC(C)C(O)C(N(C)C)C2O)C(CCN2CCCC2)CC(C)C(=O)C=CC(C)=CC1COC1OC(C)C(O)C(OC)C1OC (stereo not shown) [Compound D1, 20-DH-DO-20-(pyrrolidin-1-yl)desmycosin]
[1]; read-out: MIC
  MIC: 16 µg/mL (≈ 19.3 µM)
[2]; GROUPD2041, read-out: MIC
  MIC: 16 µg/mL (≈ 19.3 µM)
[3]; read-out: MIC
  MIC: 32 µg/mL (≈ 38.7 µM)
Klebsiella X26; read-out: MIC
  MIC: 16 µg/mL (≈ 19.3 µM)
[4]; read-out: MIC
  MIC: 2 µg/mL (≈ 2.42 µM)
[5]; read-out: MIC
  MIC: 1 µg/mL (≈ 1.21 µM)
[6]; read-out: MIC
  MIC: 0.5 µg/mL (≈ 0.605 µM)
[7]; Staphylococcus aureus, S13E
  MIC: 2 µg/mL (≈ 2.42 µM)
Escherichia coli EC14; read-out: MIC
  MIC: > 128 µg/mL
Pasteurella multocida [8]
  Number of Deaths/Number Treated: 9/10
Escherichia coli N10; read-out: MIC
  MIC: > 128 µg/mL
[9]; read-out: MIC
  MIC: 16 µg/mL (≈ 19.3 µM)
[10]; read-out: MIC
  MIC: 1 µg/mL (≈ 1.21 µM)
[11]; read-out: MIC
  MIC: 2 µg/mL (≈ 2.42 µM)
Pasteurella multocida [12]
  Number of Deaths/Number Treated: 0/10
[13]; read-out: MIC
  MIC: 2 µg/mL (≈ 2.42 µM)
Staphyloccus aureus X1.1; [21]
  MIC: 2 µg/mL (≈ 2.42 µM)
[20]; C203, Oral
  ED50: > 50 mg/kg
[20]; C203, sc, Subcutaneous
  ED50: 1.2 mg/kg
[14]; Titratable groups
  pKa: 9.5
[14]; [22]
  pKa: 7.9
Escherichia coli TEM; read-out: MIC
  MIC: 128 µg/mL (≈ 155 µM)
[15]; read-out: MIC
  MIC: 6.25 µg/mL (≈ 7.56 µM)
[16]; read-out: MIC
  MIC: 6.25 µg/mL (≈ 7.56 µM)
Staphylococcus aureus; read-out: MIC
  MIC: 0.78 µg/mL (≈ 0.943 µM)
Mycoplasma synoviae 40A; [23]
  MIC: 0.39 µg/mL (≈ 0.472 µM)
Streptococcus sp. 19F; read-out: MIC
  MIC: 6.25 µg/mL (≈ 7.56 µM)
[17]; read-out: MIC
  MIC: 6.25 µg/mL (≈ 7.56 µM)
[18]; [24]
  MIC: 12.5 µg/mL (≈ 15.1 µM)
[19]; [25]
  MIC: 12.5 µg/mL (≈ 15.1 µM)
Mycoplasma hyorhinis 29E; read-out: MIC
  MIC: 50 µg/mL (≈ 60.5 µM)

## CCC1OC(=O)CC(O)C(C)C(OC2OC(C)C(O)C(N(C)C)C2O)C(CCN2CCCCC2)CC(C)C(=O)C=CC(C)=CC1COC1OC(C)C(O)C(OC)C1OC (stereo not shown) [Compound D2, 20-DH-DO-20-(piperidin-1-yl)desmycosin]
[1]; read-out: MIC
  MIC: 16 µg/mL (≈ 19 µM)
[2]; GROUPD2041, read-out: MIC
  MIC: 16 µg/mL (≈ 19 µM)
[3]; read-out: MIC
  MIC: 16 µg/mL (≈ 19 µM)
Klebsiella X26; read-out: MIC
  MIC: 16 µg/mL (≈ 19 µM)
[4]; read-out: MIC
  MIC: 1 µg/mL (≈ 1.19 µM)
[5]; read-out: MIC
  MIC: 0.5 µg/mL (≈ 0.594 µM)
[6]; read-out: MIC
  MIC: 0.25 µg/mL (≈ 0.297 µM)
[7]; Staphylococcus aureus, S13E
  MIC: 0.5 µg/mL (≈ 0.594 µM)
Escherichia coli EC14; read-out: MIC
  MIC: > 128 µg/mL
Pasteurella multocida [8]
  Number of Deaths/Number Treated: 5/10
Escherichia coli N10; read-out: MIC
  MIC: > 128 µg/mL
[9]; read-out: MIC
  MIC: 16 µg/mL (≈ 19 µM)
[10]; read-out: MIC
  MIC: 0.25 µg/mL (≈ 0.297 µM)
[11]; read-out: MIC
  MIC: 0.5 µg/mL (≈ 0.594 µM)
Pasteurella multocida [12]
  Number of Deaths/Number Treated: 0/10
[13]; read-out: MIC
  MIC: 1 µg/mL (≈ 1.19 µM)
Staphyloccus aureus X1.1; [21]
  MIC: 0.5 µg/mL (≈ 0.594 µM)
[20]; C203, Oral
  ED50: 50 mg/kg
[20]; C203, sc, Subcutaneous
  ED50: 0.9 mg/kg
[14]; Titratable groups
  pKa: 9.1
[14]; [22]
  pKa: 7.8
Escherichia coli TEM; read-out: MIC
  MIC: 16 µg/mL (≈ 19 µM)
[15]; read-out: MIC
  MIC: 3.12 µg/mL (≈ 3.71 µM)
[16]; read-out: MIC
  MIC: 25 µg/mL (≈ 29.7 µM)
Staphylococcus aureus; read-out: MIC
  MIC: 0.78 µg/mL (≈ 0.927 µM)
Mycoplasma synoviae 40A; [23]
  MIC: 0.78 µg/mL (≈ 0.927 µM)
Streptococcus sp. 19F; read-out: MIC
  MIC: 6.25 µg/mL (≈ 7.43 µM)
[17]; read-out: MIC
  MIC: 6.25 µg/mL (≈ 7.43 µM)
[18]; [24]
  MIC: 12.5 µg/mL (≈ 14.9 µM)
[19]; [25]
  MIC: 3.12 µg/mL (≈ 3.71 µM)
Mycoplasma hyorhinis 29E; read-out: MIC
  MIC: > 50 µg/mL
